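Step 1: Grow cells in 96-well plates. Step 2: Expose to compound for 48 hours at 5 concentrations. Step 3: Interpolate endpoints linearly; if unreached, use highest concentration. GI50: concentration for 50% inhibition of growth. TGI is the concentration that stops growth completely.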
Tests used:
Test in all cases: growth of human tumour cells (NCI), 48 h
[1] = system: SK-MEL-28 melanoma
[2] = system: SK-MEL-2 melanoma
[3] = system: UO-31 renal
[4] = system: CCRF-CEM leukemia
[5] = system: HL-60(TB) leukemia
[6] = system: 786-0 renal
[7] = system: OVCAR-5 ovarian
[8] = system: NCI-H23 lung
[9] = system: TK-10 renal
[10] = system: K-562 leukemia
[11] = system: SR leukemia
[12] = system: IGROV1 ovarian
[13] = system: OVCAR-4 ovarian
[14] = system: SNB-75 CNS
[15] = system: SK-OV-3 ovarian
[16] = system: NCI-H460 lung
[17] = system: UACC-62 melanoma
[18] = system: OVCAR-3 ovarian
[19] = system: T-47D breast
[20] = system: A498 renal
[21] = system: HOP-62 NSCLC
[22] = system: SK-MEL-5 melanoma
[23] = system: PC-3 prostate
[24] = system: HOP-92 NSCLC
[25] = system: RPMI-8226 leukemia
[26] = system: CAKI-1 renal
[27] = system: MALME-3M melanoma
[28] = system: ACHN renal
[29] = system: HCT-15 colon
[30] = system: A549 NSCLC
[31] = system: NCI/ADR-RES ovarian
[32] = system: SF-539 CNS
[33] = system: HT29 colon
[34] = system: SN12C renal
[35] = system: HCT-116 colon
[36] = system: M14 melanoma
[37] = system: NCI-H522 lung
[38] = system: RXF 393 renal
[39] = system: UACC-257 melanoma
[40] = system: SF-268 CNS
[41] = system: EKVX NSCLC
[42] = system: HS 578T breast
[43] = system: SW-620 colon
[44] = system: COLO 205 colon
[45] = system: U251 CNS
[46] = system: OVCAR-8 ovarian
[47] = system: DU-145 prostate
[48] = system: MDA-MB-231 breast
[49] = system: LOX IMVI melanoma
[50] = system: NCI-H226 lung
[51] = system: MCF7 breast
[52] = system: HCC-2998 colon
[53] = system: SF-295 CNS
[54] = system: SNB-19 CNS
[55] = system: MOLT-4 leukemia

With `COc1cc(-c2nc3ccccc3s2)ccc1OCCCCOc1cc2c(cc1OC)C(=O)N1CCC[C@H]1C=N2` the GI50 [1] was 1.99 µM, the TGI [1] was 4.51 µM and the GI50 [2] was 1.6 µM. It also gave a TGI [2] of 4.23 µM, a GI50 [3] of 1.17 µM and a TGI [3] of 4.06 µM. It also gave a GI50 [4] of 0.102 µM, a TGI [4] of 2.1 µM and a GI50 [5] of 0.93 µM. It also gave a TGI [5] of 4.98 µM, a GI50 [6] of 0.9 µM and a TGI [6] of 2.17 µM. It also gave a GI50 [7] of 1.13 µM, a TGI [7] of 4.93 µM and a GI50 [8] of 1.47 µM. It also gave a TGI [8] of 4.72 µM, a GI50 [9] of 2.27 µM and a TGI [9] of 8.81 µM. It also gave a GI50 [10] of 0.372 µM, a TGI [10] of 5.88 µM and a GI50 [11] of 0.212 µM. For the same compound, the TGI [11] was 0.785 µM, the GI50 [12] was 3.06 µM and the TGI [12] was 12.7 µM. The GI50 [13] was 1.5 µM, the TGI [13] was 7.61 µM and the GI50 [14] was 1.4 µM. The TGI [14] was 2.84 µM, the GI50 [15] was 2.66 µM and the TGI [15] was 5.44 µM. It also gave a GI50 [16] of 1 µM, a TGI [16] of 3.4 µM and a GI50 [17] of 1.41 µM. For the same compound, the TGI [17] was 2.84 µM, the GI50 [18] was 0.728 µM and the TGI [18] was 4.78 µM. For the same compound, the GI50 [19] was 0.407 µM, the TGI [19] was 2.03 µM and the GI50 [20] was 1.6 µM. The TGI [20] was 4.16 µM, the GI50 [21] was 1.56 µM and the TGI [21] was 3.37 µM. For the same compound, the GI50 [22] was 0.724 µM, the TGI [22] was 2.01 µM and the GI50 [23] was 0.785 µM. It also gave a TGI [23] of 2.55 µM, a GI50 [24] of 0.475 µM and a TGI [24] of 1.19 µM. For the same compound, the GI50 [25] was 0.328 µM, the TGI [25] was 1.44 µM and the GI50 [26] was 0.949 µM. It also gave a TGI [26] of 11.6 µM, a GI50 [27] of 1.55 µM and a TGI [27] of 3.46 µM. The GI50 [28] was 1.31 µM, the TGI [28] was 5.8 µM and the GI50 [29] was 1.7 µM. It also gave a TGI [29] of 4.46 µM, a GI50 [30] of 2.8 µM and a TGI [30] of 7.91 µM. For the same compound, the GI50 [31] was 2.13 µM, the TGI [31] was 6.12 µM and the GI50 [32] was 1.61 µM. The TGI [32] was 3.22 µM, the GI50 [33] was 0.724 µM and the TGI [33] was 7.14 µM. For the same compound, the GI50 [34] was 1.39 µM, the TGI [34] was 3.87 µM and the GI50 [35] was 0.57 µM. It also gave a TGI [35] of 2.19 µM, a GI50 [36] of 1.38 µM and a TGI [36] of 2.92 µM. It also gave a GI50 [37] of 0.736 µM, a TGI [37] of 3.16 µM and a GI50 [38] of 0.24 µM. For the same compound, the TGI [38] was 0.698 µM, the GI50 [39] was 2.49 µM and the TGI [39] was 5.78 µM. For the same compound, the GI50 [40] was 1.28 µM, the TGI [40] was 4.65 µM and the GI50 [41] was 2.24 µM. For the same compound, the TGI [41] was 5.51 µM, the GI50 [42] was 1.23 µM and the TGI [42] was 4.47 µM. For the same compound, the GI50 [43] was 0.801 µM, the TGI [43] was 2.72 µM and the GI50 [44] was 0.697 µM. It also gave a TGI [44] of 2.26 µM, a GI50 [45] of 0.489 µM and a TGI [45] of 1.63 µM. The GI50 [46] was 1.99 µM, the TGI [46] was 22.7 µM and the GI50 [47] was 0.832 µM. The TGI [47] was 6.06 µM, the GI50 [48] was 0.911 µM and the TGI [48] was 3.09 µM. The GI50 [49] was 0.726 µM, the TGI [49] was 2.22 µM and the GI50 [50] was 2.47 µM. The TGI [50] was 5.05 µM, the GI50 [51] was 0.471 µM and the TGI [51] was 3.57 µM. For the same compound, the GI50 [52] was 1.1 µM, the TGI [52] was 2.69 µM and the GI50 [53] was 2.02 µM. The TGI [53] was 10.3 µM, the GI50 [54] was 1.57 µM and the TGI [54] was 4.11 µM. It also gave a GI50 [55] of 0.952 µM and a TGI [55] of 7.99 µM.
